Reference: ChEMBL document CHEMBL3085700 (J Med Chem, 2013)
Active and inactive are the calls of the source. The rule behind the calls is not given here.

Legend:
[1] = molecular target: T1, Fatty-acid amide hydrolase 1 (Homo sapiens, UniProt O00519); experiment: Inhibition of human recombinant FAAH overexpressed in African green monkey COS7 cells using [3H]-anandamide as substrate preincubated for 10 mins before substrate addition measured after 10 mins by liquid scintillation counting analysis; assay type: cell-based, COS-7
T1 sequence (O00519 whole entry): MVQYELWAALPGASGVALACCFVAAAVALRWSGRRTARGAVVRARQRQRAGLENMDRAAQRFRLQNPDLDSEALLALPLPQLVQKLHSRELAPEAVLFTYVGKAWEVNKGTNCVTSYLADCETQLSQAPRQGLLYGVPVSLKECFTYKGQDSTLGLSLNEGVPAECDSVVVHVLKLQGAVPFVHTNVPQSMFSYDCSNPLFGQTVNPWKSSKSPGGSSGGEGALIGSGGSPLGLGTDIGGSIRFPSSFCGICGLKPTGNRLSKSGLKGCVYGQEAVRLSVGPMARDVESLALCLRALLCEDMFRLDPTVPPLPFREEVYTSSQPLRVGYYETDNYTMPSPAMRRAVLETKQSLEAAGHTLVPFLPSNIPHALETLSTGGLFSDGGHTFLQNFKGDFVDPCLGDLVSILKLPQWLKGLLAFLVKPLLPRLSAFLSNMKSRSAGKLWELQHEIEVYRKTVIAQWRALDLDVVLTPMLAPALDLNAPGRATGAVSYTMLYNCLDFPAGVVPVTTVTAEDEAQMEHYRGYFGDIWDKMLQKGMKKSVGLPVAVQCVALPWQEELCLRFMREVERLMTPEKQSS

[2] = molecular target: T2, Lysophosphatidylserine lipase ABHD12 (Homo sapiens) (UniProt Q8N2K0); experiment: Inhibition of human ABHD12 overexpressed in HEK293 cells assessed as 2-AG hydrolysis at 1 uM by fluorescent glycerol assay; assay type: cell-based
T2 sequence (whole entry): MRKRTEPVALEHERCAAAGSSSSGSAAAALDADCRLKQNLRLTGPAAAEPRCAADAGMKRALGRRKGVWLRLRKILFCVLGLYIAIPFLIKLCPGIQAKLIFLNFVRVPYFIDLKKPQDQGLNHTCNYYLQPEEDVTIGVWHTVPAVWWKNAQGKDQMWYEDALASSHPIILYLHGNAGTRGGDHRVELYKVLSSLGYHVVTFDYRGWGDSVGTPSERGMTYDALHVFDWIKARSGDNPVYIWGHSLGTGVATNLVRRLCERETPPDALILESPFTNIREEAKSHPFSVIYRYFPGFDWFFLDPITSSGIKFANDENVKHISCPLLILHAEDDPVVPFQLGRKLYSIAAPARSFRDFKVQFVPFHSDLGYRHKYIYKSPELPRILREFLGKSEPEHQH

[3] = molecular target: T3, Monoacylglycerol lipase ABHD6 (Homo sapiens) (UniProt Q9BV23); experiment: Inhibition of human ABHD6 overexpressed in HEK293 cells assessed as 2-AG hydrolysis at 1 uM by fluorescent glycerol assay; assay type: cell-based
T3 sequence (whole entry): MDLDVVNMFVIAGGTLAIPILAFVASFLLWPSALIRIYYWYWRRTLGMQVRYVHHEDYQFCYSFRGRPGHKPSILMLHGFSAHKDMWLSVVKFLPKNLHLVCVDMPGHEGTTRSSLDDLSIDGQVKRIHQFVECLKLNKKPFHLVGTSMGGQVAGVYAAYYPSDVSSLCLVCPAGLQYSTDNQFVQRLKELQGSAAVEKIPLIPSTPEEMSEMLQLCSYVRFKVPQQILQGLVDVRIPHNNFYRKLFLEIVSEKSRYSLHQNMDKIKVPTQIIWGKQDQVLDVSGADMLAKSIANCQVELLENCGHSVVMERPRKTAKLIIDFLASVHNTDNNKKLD

[4] = molecular target: T4, Monoglyceride lipase (Homo sapiens) (UniProt Q99685); experiment: Inhibition of human recombinant MAGL overexpressed in HEK cells using 2-AG as substrate at 10 uM preincubated for 10 mins before substrate addition measured after 10 mins by HPLC analysis relative to control; assay type: cell-based; conditions: HEK293
T4 sequence (whole entry): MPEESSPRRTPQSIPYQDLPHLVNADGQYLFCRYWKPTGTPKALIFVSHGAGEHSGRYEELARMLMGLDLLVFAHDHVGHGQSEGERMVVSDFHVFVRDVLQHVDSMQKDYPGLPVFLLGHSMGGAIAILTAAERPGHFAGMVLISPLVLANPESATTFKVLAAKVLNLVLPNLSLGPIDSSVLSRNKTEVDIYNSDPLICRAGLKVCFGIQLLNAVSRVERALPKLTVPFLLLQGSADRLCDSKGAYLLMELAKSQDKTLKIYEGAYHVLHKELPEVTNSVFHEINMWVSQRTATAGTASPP

[5] = molecular target: T5, Fatty-acid amide hydrolase 1 (Homo sapiens) (UniProt O00519); experiment: Inhibition of human recombinant FAAH overexpressed in African green monkey COS7 cells using [3H]-anandamide as substrate at 10 uM preincubated for 10 mins before substrate addition measured after 10 mins by liquid scintillation counting analysis relative to control; assay type: cell-based; conditions: COS-7
T5 sequence (whole entry): T1 sequence (O00519 whole entry)

[6] = molecular target: T6, Prostaglandin G/H synthase 1 (Ovis aries) (UniProt P05979); experiment: Inhibition of ovine COX-1 using arachidonic acid as substrate assessed as oxygen consumption at 30 uM measured within 10 to 50 secs
T6 sequence (whole entry): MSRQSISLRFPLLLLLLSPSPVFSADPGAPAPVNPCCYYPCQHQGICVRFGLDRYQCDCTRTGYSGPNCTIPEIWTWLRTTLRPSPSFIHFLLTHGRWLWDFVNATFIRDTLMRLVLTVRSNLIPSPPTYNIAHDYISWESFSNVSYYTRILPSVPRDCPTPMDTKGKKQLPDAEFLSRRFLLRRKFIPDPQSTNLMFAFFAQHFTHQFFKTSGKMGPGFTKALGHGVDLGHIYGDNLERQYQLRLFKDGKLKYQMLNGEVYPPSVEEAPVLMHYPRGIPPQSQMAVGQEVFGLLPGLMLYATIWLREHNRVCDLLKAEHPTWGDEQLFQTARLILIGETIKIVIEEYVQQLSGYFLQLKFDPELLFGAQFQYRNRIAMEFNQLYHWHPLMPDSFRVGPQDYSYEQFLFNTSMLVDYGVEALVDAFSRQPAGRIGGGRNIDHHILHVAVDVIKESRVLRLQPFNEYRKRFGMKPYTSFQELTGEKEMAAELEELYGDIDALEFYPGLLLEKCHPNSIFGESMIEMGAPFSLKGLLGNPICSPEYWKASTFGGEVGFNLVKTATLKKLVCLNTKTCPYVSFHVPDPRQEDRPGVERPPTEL

Monoglyceride lipase = molecular target: T7, Monoglyceride lipase (Homo sapiens, UniProt Q99685); experiment: Inhibition of human recombinant MAGL overexpressed in HEK cells using 2-AG as substrate preincubated for 10 mins before substrate addition measured after 10 mins by HPLC analysis; assay type: cell-based, HEK293; conditions: read-out: IC50
T7 sequence (Q99685 whole entry): T4 sequence (whole entry)

[7] = molecular target: T5, Fatty-acid amide hydrolase 1 (Homo sapiens); experiment: Inhibition of human recombinant FAAH overexpressed in African green monkey COS7 cells using [3H]-anandamide as substrate at 3 to 30 uM preincubated for 10 to 60 mins by liquid scintillation counting analysis; assay type: cell-based; conditions: COS-7
[8] = molecular target: T5, Fatty-acid amide hydrolase 1 (Homo sapiens); experiment: Reversible inhibition of human recombinant FAAH overexpressed in African green monkey COS7 cells using […] as substrate assessed as recovery of enzyme activity at 20 x IC50 preincubated for 60 mins followed by 500 fold dilution measured after 10 mins by HPLC analysis; assay type: cell-based; conditions: COS-7
[9] = molecular target: T5, Fatty-acid amide hydrolase 1 (Homo sapiens); experiment: Inhibition of human recombinant FAAH overexpressed in African green monkey COS7 cells using [3H]-anandamide as substrate at 10 to 100 uM preincubated for 10 to 60 mins by liquid scintillation counting analysis; assay type: cell-based; conditions: COS-7
[10] = molecular target: T5, Fatty-acid amide hydrolase 1 (Homo sapiens); experiment: Noncompetitive inhibition of human recombinant FAAH overexpressed in African green monkey COS7 cells using anandamide as substrate assessed as decrease in Vmax of substrate hydrolysis preincubated for 10 mins before substrate addition measured after 10 mins by HPLC analysis; conditions: COS-7
[11] = molecular target: T5, Fatty-acid amide hydrolase 1 (Homo sapiens); experiment: Inhibition of human recombinant FAAH overexpressed in African green monkey COS7 cells using [3H]-anandamide as substrate at 10 to 300 uM preincubated for 10 to 60 mins by liquid scintillation counting analysis; assay type: cell-based; conditions: COS-7
[12] = molecular target: Cannabinoid receptor 1 (Rattus norvegicus) (UniProt P20272); experiment: Agonist activity at CB1 receptor in rat cerebellar membranes up to 10 uM incubated for 10 mins prior to testing by [35S]GTPgammaS binding assay; assay type: functional, cell membranes; conditions: Cerebellum, Membrane
Sequence of Cannabinoid receptor 1 (Rattus norvegicus) (P20272 whole entry): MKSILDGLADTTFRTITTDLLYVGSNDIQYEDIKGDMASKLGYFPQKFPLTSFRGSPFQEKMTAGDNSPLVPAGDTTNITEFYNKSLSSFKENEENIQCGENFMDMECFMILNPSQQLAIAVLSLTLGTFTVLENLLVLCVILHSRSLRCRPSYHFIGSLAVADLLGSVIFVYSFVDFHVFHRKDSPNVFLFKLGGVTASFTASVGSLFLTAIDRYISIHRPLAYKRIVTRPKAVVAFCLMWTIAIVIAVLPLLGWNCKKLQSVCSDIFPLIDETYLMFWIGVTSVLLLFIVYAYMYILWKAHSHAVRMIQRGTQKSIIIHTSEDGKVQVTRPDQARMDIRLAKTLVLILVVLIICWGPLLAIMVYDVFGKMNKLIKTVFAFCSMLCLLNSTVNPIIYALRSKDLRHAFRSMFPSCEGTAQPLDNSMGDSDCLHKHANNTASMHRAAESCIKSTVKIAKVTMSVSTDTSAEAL

[13] = molecular target: Cannabinoid receptor 1 (Rattus norvegicus) (UniProt P20272); experiment: Antagonist activity at CB1 receptor in rat cerebellar membranes assessed as HU210-evoked response up to 10 uM incubated for 10 mins prior to testing by [35S]GTPgammaS binding assay; assay type: functional, cell membranes; conditions: Cerebellum, Membrane
[14] = molecular target: Cannabinoid receptor 2 (Homo sapiens) (UniProt P34972); experiment: Agonist activity at human CB2 receptor expressed in CHO cell membranes up to 10 uM incubated for 10 mins prior to testing by [35S]GTPgammaS binding assay; assay type: functional
Sequence of Cannabinoid receptor 2 (Homo sapiens) (P34972 whole entry): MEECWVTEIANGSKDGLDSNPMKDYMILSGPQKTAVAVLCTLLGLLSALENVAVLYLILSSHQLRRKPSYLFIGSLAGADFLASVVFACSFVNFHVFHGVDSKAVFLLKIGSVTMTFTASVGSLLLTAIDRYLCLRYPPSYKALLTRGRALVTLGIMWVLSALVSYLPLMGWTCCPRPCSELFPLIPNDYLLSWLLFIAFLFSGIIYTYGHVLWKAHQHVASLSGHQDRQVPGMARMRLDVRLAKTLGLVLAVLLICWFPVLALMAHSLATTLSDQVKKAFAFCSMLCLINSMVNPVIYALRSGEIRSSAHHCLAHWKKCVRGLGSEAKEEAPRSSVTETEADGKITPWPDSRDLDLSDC

| SMILES | IC50 ([1]; read-out: IC50) | IC50 ([1]; read-out: pIC50 (converted)) | inhibition [2] | inhibition [3] | inhibition [4] | also measured |
| --- | --- | --- | --- | --- | --- | --- |
| COc1nn([C@H](C)c2ccc(-c3ccccc3)cc2)c(=O)o1 | 3000 nM | 2880 nM | inactive | inactive | 49% |  |
| COc1nn(C(C)C)c(=O)o1 |  |  | inactive | inactive | 6% | inhibition [5]: 12% |
| CC(C(=O)O)c1ccc(-c2ccccc2)c(F)c1 (configuration not stated) |  |  |  |  |  | inhibition [6]: Active |
| COc1nn(C2CCCCC2)c(=O)o1 |  |  | inactive | inactive | inactive | inhibition [5]: 40% |
| COc1nn(C(C)c2ccc(CC(C)C)cc2)c(=O)o1 (racemic) | 23 nM | 22.9 nM | inactive | inactive | 48% |  |
| COc1nn(Cc2ccc(Oc3ccccc3)cc2)c(=O)o1 |  | 100 nM | inactive | inactive |  | IC50 ([1]; cos-7, read-out: IC50): 100 nM; IC50 (Monoglyceride lipase): 400 nM |
| COc1nn(C(C)c2cccc(-c3ccccc3)c2)c(=O)o1 (configuration not stated) | 1200 nM | 1170 nM | inactive | inactive | 42% |  |
| COc1nn([C@@H](C)c2ccc(N(c3ccccc3)c3ccccc3)cc2)c(=O)o1 | 98 nM | 100 nM | inactive | inactive | 41% | inhibition [7]: Active; inhibition [8]: Active; inhibition [9]: Active; inhibition [10]: Dose-dependent effect; inhibition [11]: Active |
| COc1nn([C@@H](C)c2ccc(-c3ccccc3)cc2)c(=O)o1 | 23 nM | 23.4 nM | inactive | inactive | 18% | inhibition [7]: Active; inhibition [8]: Active; Activity [12]: inactive; inhibition [9]: Active; Activity [13]: inactive; inhibition [10]: Dose-dependent effect; inhibition [11]: Active; Activity [14]: inactive |
| COc1nn(C(C)c2ccc(Oc3ccccc3)cc2)c(=O)o1 (configuration not stated) | 34 nM | 33.9 nM | inactive | inactive |  | IC50 (Monoglyceride lipase): 2000 nM |
| COc1nn(C(C)c2ccc(-c3ccccc3)cc2)c(=O)o1 (racemic) | 48 nM | 46.8 nM | inactive | inactive | 34% |  |
